Source: patent publication US4468511A, “C-20- And C-23-Modified macrolide derivatives” (Eli Lilly and Company, priority 1983, dated 1984)
≈ marks a conversion by molar mass, not a printed value. Read-outs that look alike come from different tables or passages of the source.

Assays:
[1] = system: Staphylococcus epidermidis EPI1; test: microbe, parasite or virus in culture; format: cell-based
Protocol: (§1) The MIC's in Table II were determined by standard agar-dilution assays. The MIC's in Table III were obtained using a conventional broth-dilution microtiter test.

[2] = system: Staphylococcus aureus S13E; test: microbe, parasite or virus in culture; format: cell-based
Protocol: as §1

[3] = system: Streptococcus pyogenes C203; test: Protection of mice experimentally infected with S. pyogenes C203; format: in vivo;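 further: two doses given 1 and 4 hours after infection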
Protocol: Some of the derivatives of this invention have shown in vivo antimicrobial activity against experimentally-induced infections in laboratory animals. When two doses of test compound were administered to mice experimentally infected with S. pyogenes C203, the activity observed was measured as an ED50 value [effective dose in mg/kg to protect 50% of the test animals: see Warren Wick, et al., J. Bacteriol. 81, 233-235 (1961)].

[4] = system: Staphylococcus epidermidis EPI2; test: MIC, standard agar-dilution assay; format: cell-based; details: agar-dilution; Staphylococcus epidermidis EPI2; read-out: MIC
Protocol: as §1

[5] = system: Staphylococcus aureus X400; test: MIC, standard agar-dilution assay; format: cell-based
Protocol: as §1

[6] = system: Haemophilus influenzae C.L.; test: MIC, standard agar-dilution assay; format: cell-based
Protocol: as §1

Mycoplasma gallisepticum = test: MIC, conventional broth-dilution microtiter test; format: cell-based; details: Mycoplasmoides gallisepticum
Protocol: (§2) Certain of the derivatives are active against some gram-negative bacteria, such as Pasteurella species. The MIC's in Table II were determined by standard agar-dilution assays. The MIC's in Table III were obtained using a conventional broth-dilution microtiter test.

Streptococcus sp. 80 = test: MIC, conventional broth-dilution microtiter test; format: cell-based
Protocol: as §2

[7] = system: Pasteurella multocida 68C; test: MIC, conventional broth-dilution microtiter test; format: cell-based
Protocol: as §2

[8] = system: Pasteurella hemolytica 41D; test: MIC, conventional broth-dilution microtiter test; format: cell-based; details: broth-dilution microtiter; Pasteurella hemolytica 41D; read-out: MIC
Protocol: as §2

Staphylococcus aureus = test: MIC, conventional broth-dilution microtiter test; format: cell-based; details: broth-dilution microtiter, read-out: MIC
Protocol: as §2

Mycoplasma hyorhinis = test: MIC, conventional broth-dilution microtiter test; format: cell-based
Protocol: as §2

[9] = system: Pasteurella multocida 22A; test: MIC, conventional broth-dilution microtiter test; format: cell-based; details: broth-dilution microtiter; Pasteurella multocida 22A; read-out: MIC
Protocol: as §2

[10] = system: Pasteurella hemolytica 22C; test: MIC, conventional broth-dilution microtiter test; format: cell-based; details: broth-dilution microtiter; Pasteurella hemolytica 22C; read-out: MIC
Protocol: as §2

[11] = system: Pasteurella multocida 17E; test: MIC, conventional broth-dilution microtiter test; format: cell-based; details: broth-dilution microtiter; Pasteurella multocida 17E, Bovine isolate; read-out: MIC
Protocol: as §2

Mycoplasma synoviae = test: MIC, conventional broth-dilution microtiter test; format: cell-based; details: Mycoplasmopsis synoviae
Protocol: as §2

[12] = system: Mycoplasma gallisepticum 34159; test: MIC, conventional broth-dilution microtiter test; format: cell-based; details: Mycoplasmoides gallisepticum
Protocol: as §2

[13] = system: Pasteurella multocida 60A; test: MIC, conventional broth-dilution microtiter test; format: cell-based
Protocol: as §2

[14] = system: Pasteurella hemolytica 23C; test: MIC, conventional broth-dilution microtiter test; format: cell-based; details: broth-dilution microtiter; Pasteurella hemolytica 23C; read-out: MIC
Protocol: as §2

[15] = system: Mycoplasma gallisepticum 41313; test: MIC, conventional broth-dilution microtiter test; format: cell-based; details: Mycoplasmoides gallisepticum
Protocol: as §2

[16] = system: Pasteurella multocida 40G; test: MIC, conventional broth-dilution microtiter test; format: cell-based
Protocol: as §2

[17] = system: Klebsiella pneumoniae X26; test: MIC, standard agar-dilution assay; format: cell-based
Protocol: as §2

Escherichia coli TEM = test: MIC, standard agar-dilution assay; format: cell-based; details: agar-dilution; Escherichia coli TEM; read-out: MIC
Protocol: as §2

[18] = system: Klebsiella pneumoniae KAE; test: MIC, standard agar-dilution assay; format: cell-based; details: agar-dilution; Klebsiella pneumoniae KAE; read-out: MIC
Protocol: as §2

[19] = system: Streptococcus Group D X66; test: MIC, standard agar-dilution assay; format: cell-based
Protocol: as §2

Escherichia coli EC14 = test: MIC, standard agar-dilution assay; format: cell-based; details: agar-dilution; Escherichia coli EC14; read-out: MIC
Protocol: as §2

[20] = system: Streptococcus pyogenes C203; test: MIC, standard agar-dilution assay; format: cell-based
Protocol: as §2

[21] = system: Staphylococcus aureus X1.1; test: MIC, standard agar-dilution assay; format: cell-based
Protocol: as §2

[22] = system: Streptococcus pyogenes 9960; test: MIC, standard agar-dilution assay; format: cell-based
Protocol: as §2

[23] = system: Streptococcus pneumoniae Park I; test: MIC, standard agar-dilution assay; format: cell-based
Protocol: as §2

[24] = system: Staphylococcus aureus V41; test: MIC, standard agar-dilution assay; format: cell-based
Protocol: as §2

[25] = system: Haemophilus influenzae 76; test: MIC, standard agar-dilution assay; format: cell-based; details: agar-dilution; Haemophilus influenzae 76, Ampicillin-resistant strain; read-out: MIC
Protocol: as §1

[26] = agar-dilution, Staphylococcus epidermidis EPI1, read-out: MIC
[27] = broth-dilution microtiter, Mycoplasma gallisepticum, read-out: MIC
[28] = broth-dilution microtiter, Streptococcus sp. 80, read-out: MIC
[29] = broth-dilution microtiter, Mycoplasma hyorhinis, read-out: MIC
[30] = broth-dilution microtiter, Mycoplasma gallisepticum 34159, Resistant strain, read-out: MIC
[31] = broth-dilution microtiter, Mycoplasma gallisepticum 41313, Resistant strain, read-out: MIC
[32] = agar-dilution, Staphylococcus aureus V41, Penicillin-resistant strain, read-out: MIC
[33] = agar-dilution, Haemophilus influenzae C.L., Ampicillin-sensitive strain, read-out: MIC
[34] = broth-dilution microtiter, Pasteurella multocida 68C, read-out: MIC
[35] = broth-dilution microtiter, Pasteurella multocida 60A, Avian isolate, read-out: MIC
[36] = broth-dilution microtiter, Pasteurella multocida 40G, read-out: MIC
[37] = agar-dilution, Klebsiella pneumoniae X26, read-out: MIC
[38] = agar-dilution, Streptococcus Group D X66, read-out: MIC
[39] = agar-dilution, Streptococcus 9960, read-out: MIC
[40] = agar-dilution, Streptococcus pneumoniae Park I, read-out: MIC

With `CCC1OC(=O)CC(O)C(C)C(OC2OC(C)C(OC3CC(C)(O)C(O)C(C)O3)C(N(C)C)C2O)C(CCNCc2ccccc2)CC(C)C(=O)C=CC(C)=CC1C` (centres unmarked) [Compound 25, 20-N-Benzylamino-20-deoxy-20-dihydro-DMOT] the MIC [1, 26] was 4 µg/mL (≈ 4.9 µM), the MIC [2] was 8 µg/mL (≈ 9.79 µM) and the ED50 ([3]; C203, po, read-out: ED50 Oral) was over 100 mg/kg. The ED50 ([3]; C203, sc, read-out: ED50 Subcutaneous) was over 25 mg/kg, the MIC [4] was 4 µg/mL (≈ 4.9 µM) and the MIC ([5]; agar-dilution, Staphylococcus aureus X400, Methicillin-resistant strain, read-out: MIC) was 4 µg/mL (≈ 4.9 µM). For the same molecule, the MIC ([6]; Haemophilus influenzae) was 64 µg/mL (≈ 78.3 µM), the MIC (Mycoplasma gallisepticum; [27]) was 1.56 µg/mL (≈ 1.91 µM) and the MIC (Streptococcus sp. 80; [28]) was 6.25 µg/mL (≈ 7.65 µM). It also gave an MIC ([7]; Pasteurella multocida, 68C) of 50 µg/mL (≈ 61.2 µM), an MIC [8] of over 50 µg/mL and an MIC (Staphylococcus aureus) of 12.5 µg/mL (≈ 15.3 µM). The MIC (Mycoplasma hyorhinis; [29]) was over 50 µg/mL, the MIC [9] was over 50 µg/mL and the MIC [10] was over 50 µg/mL. The MIC [11] was over 50 µg/mL, the MIC (Mycoplasma synoviae) was 50 µg/mL (≈ 61.2 µM) and the MIC [12, 30] was over 50 µg/mL. The MIC ([13]; Pasteurella multocida, 60A) was 50 µg/mL (≈ 61.2 µM), the MIC [14] was over 50 µg/mL and the MIC [15, 31] was over 50 µg/mL. For the same molecule, the MIC ([16]; Pasteurella multocida, 40G) was 50 µg/mL (≈ 61.2 µM), the MIC ([17]; Klebsiella pneumoniae, X26) was 64 µg/mL (≈ 78.3 µM) and the MIC (Escherichia coli TEM) was over 128 µg/mL. For the same molecule, the MIC [18] was over 128 µg/mL, the MIC [19] was 8 µg/mL (≈ 9.79 µM) and the MIC (Escherichia coli EC14) was over 128 µg/mL. It also gave an MIC ([20]; Streptococcus pyogenes, C203) of 2 µg/mL (≈ 2.45 µM), an MIC ([21]; agar-dilution, Staphylococcus aureus X1.1, read-out: MIC) of 4 µg/mL (≈ 4.9 µM) and an MIC [22]; 9960 of 8 µg/mL (≈ 9.79 µM). For the same molecule, the MIC ([23]; Streptococcus pneumoniae) was 1 µg/mL (≈ 1.22 µM) and the MIC [24, 32] was 4 µg/mL (≈ 4.9 µM).

For `CCC1OC(=O)CC(O)C(C)C(OC2OC(C)C(OC3CC(C)(O)C(O)C(C)O3)C(N(C)C)C2O)C(CCN2C(=O)c3ccccc3C2=O)CC(C)C(=O)C=CC(C)=CC1C` (centres unmarked) [Compound 26, 20-N-Phthalimido-20-deoxy-20-dihydro-DMOT], the MIC [1, 26] was 64 µg/mL (≈ 74.7 µM), the MIC [2] was 64 µg/mL (≈ 74.7 µM) and the MIC [4] was 32 µg/mL (≈ 37.3 µM). The MIC ([5]; Staphylococcus aureus, X400) was 64 µg/mL (≈ 74.7 µM), the MIC [6, 33] was over 128 µg/mL and the MIC [25] was over 128 µg/mL. The MIC (Mycoplasma gallisepticum; [27]) was 12.5 µg/mL (≈ 14.6 µM), the MIC (Streptococcus sp. 80; [28]) was over 50 µg/mL and the MIC [7, 34] was over 50 µg/mL. It also gave an MIC [8] of over 50 µg/mL, an MIC (Staphylococcus aureus) of over 50 µg/mL and an MIC (Mycoplasma hyorhinis; [29]) of 50 µg/mL (≈ 58.3 µM). For the same molecule, the MIC [9] was over 50 µg/mL, the MIC [10] was over 50 µg/mL and the MIC [11] was over 50 µg/mL. For the same molecule, the MIC [12, 30] was 50 µg/mL (≈ 58.3 µM), the MIC [13, 35] was over 50 µg/mL and the MIC [14] was over 50 µg/mL. It also gave an MIC [15, 31] of 50 µg/mL (≈ 58.3 µM), an MIC [16, 36] of over 50 µg/mL and an MIC [17, 37] of over 128 µg/mL. For the same molecule, the MIC (Escherichia coli TEM) was over 128 µg/mL, the MIC [18] was over 128 µg/mL and the MIC [19, 38] was 128 µg/mL (≈ 149 µM). For the same molecule, the MIC (Escherichia coli EC14) was over 128 µg/mL, the MIC ([20]; Streptococcus pyogenes, C203) was 64 µg/mL (≈ 74.7 µM) and the MIC ([21]; Staphylococcus aureus, X1.1) was 64 µg/mL (≈ 74.7 µM). It also gave an MIC [22, 39] of over 128 µg/mL, an MIC [23, 40] of 8 µg/mL (≈ 9.33 µM) and an MIC ([24]; Staphylococcus aureus, V41) of 32 µg/mL (≈ 37.3 µM).

Molecule `CCC1OC(=O)CC(O)C(C)C(OC2OC(C)C(OC3CC(C)(O)C(O)C(C)O3)C(N(C)C)C2O)C(CCN2C(=O)c3ccccc3C2=O)CC(C)C(=O)C=CC(C)=CC1CN1C(=O)c2ccccc2C1=O` (centres unmarked) [Compound 38, 20,23-Di-N-phthalimido-20,23-dideoxy-20-dihydro-DMT] has an MIC ([1]; Staphylococcus epidermidis, EPI1) of 32 µg/mL (≈ 31.9 µM), an MIC [2] of 32 µg/mL (≈ 31.9 µM) and an MIC [4] of 16 µg/mL (≈ 16 µM). It also gave an MIC ([5]; Staphylococcus aureus, X400) of 64 µg/mL (≈ 63.9 µM), an MIC [6, 33] of over 128 µg/mL and an MIC [25] of over 128 µg/mL. It also gave an MIC (Mycoplasma gallisepticum) of 50 µg/mL (≈ 49.9 µM), an MIC (Streptococcus sp. 80; Streptococcus, SP.80) of 50 µg/mL (≈ 49.9 µM) and an MIC [7, 34] of over 50 µg/mL. It also gave an MIC [8] of over 50 µg/mL, an MIC (Staphylococcus aureus) of 25 µg/mL (≈ 24.9 µM) and an MIC (Mycoplasma hyorhinis; Mycoplasma) of 50 µg/mL (≈ 49.9 µM). It also gave an MIC [9] of over 50 µg/mL, an MIC [10] of over 50 µg/mL and an MIC [11] of over 50 µg/mL. For the same molecule, the MIC [12]; 34159 was 50 µg/mL (≈ 49.9 µM), the MIC [13, 35] was over 50 µg/mL and the MIC [14] was over 50 µg/mL. The MIC [15]; 41313 was 50 µg/mL (≈ 49.9 µM), the MIC [16, 36] was over 50 µg/mL and the MIC [17, 37] was over 128 µg/mL. It also gave an MIC (Escherichia coli TEM) of over 128 µg/mL, an MIC [18] of over 128 µg/mL and an MIC [19, 38] of over 128 µg/mL. It also gave an MIC (Escherichia coli EC14) of over 128 µg/mL, an MIC ([20]; agar-dilution, Streptococcus pyogenes C203, read-out: MIC) of over 128 µg/mL and an MIC ([21]; Staphylococcus aureus, X1.1) of 64 µg/mL (≈ 63.9 µM). The MIC [22, 39] was over 128 µg/mL, the MIC [23, 40] was 16 µg/mL (≈ 16 µM) and the MIC [24, 32] was 16 µg/mL (≈ 16 µM).
